Laboratory results reported in patent publication US10793571B2, “Uses of diazepane derivatives” (Dana-Farber Cancer Institute, Inc., priority 2014, dated 2020).

What was measured:
[1] = biological target: T1, BRD4.1 (Homo sapiens, UniProt O60885); assay: Acetyl-histone binding assay (AlphaScreen), percent inhibition of BRD4.1; conditions: BRD4.1, 2.5 μM compound concentration, in vitro; read-out: % INHIB (at 2.5 uM)
T1 construct: final concentrations of BRD4.1 at 80 nM; His tag (inferred from the Ni-coated acceptor bead)
Procedure: (§1) Assays were performed with minor modifications from the manufacturer's protocol (PerkinElmer, USA). All reagents were diluted in 50 mM HEPES, 150 mM NaCl, 0.1% w/v BSA, and 0.01% w/v Tween^□ 20 at pH 7.5 and allowed to equilibrate to room temperature prior to addition to plates. After addition of Alpha beads to master solutions, all subsequent steps were performed in low light conditions. […] Addition to wells was performed with either a multichannel pipet (for optimization experiments) or a Biotek EL406 liquid handler. After a 1000-rpm spin-down for 1 minute, 100 nL of the solutions of the compounds of the invention from stock plates were added by pin transfer using a Janus Workstation (PerkinElmer, USA). The streptavidin-coated donor beads (25 μg/ml final) were added as with previous solution in a 2x, 10 μL volume. Following this addition, the plates were sealed with foil to block light exposure and to prevent evaporation. The plates were spun down again at 1000 rpm for 1 minute. Next, the plates were incubated in the room with the plate reader (for temperature equilibration) for 1.5 hour prior to reading the assay.

[2] = tested on: MV411; assay: Cellular assay (ATPlite cell viability), MV411; type: cell-based; conditions: MV411 cell line
Procedure: (§2) The compounds of the invention are also evaluated in the BRD4 dependant cell line for the cellular activity to generate cellular IC50 values.
(§3) Cells (e.g., BRD4 dependant cells) were counted and adjusted to 60,000 cells/mL. Using a Biotek EL406, 50 μL, of the cells in media were distributed into 384 well white plates from Thermo. Immediately after plating, compounds of the invention in DMSO were distributed to plates. For large plate sets, cells were returned to a 37° C. incubator while not in use. The compounds were added to plates using a 100 nL 384 well pin transfer manifold on a Janus workstation. Stocks were arrayed in 10 point quadruplicate dose response in DMSO stock in 384-well Greiner compound plates. After addition of the compounds, plates were incubated for three days in a 37° C. incubator. Cell viability was read out using ATPlite from Perkin Elmer. Plates were removed from the incubator and brought to room temperature prior to use. Lyophilized powder was resuspended in lysis buffer and diluted 1:2 with DI water. 25 μL of this solution was added to each well using the Biotek liquid handler. Plates were sealed with adherent aluminum seals prior to vortexing and spinning down at 1000 g for 1 minute. Plates were incubated for 15 minutes at room temperature before signal was read on an Envision Plate Reader.

[3] = tested on: 797; assay: Cellular assay (ATPlite cell viability), 797; type: cell-based; conditions: 797 cell line
Procedure: as §2, §3

[4] = tested on: NOMO1; assay: Cellular assay (ATPlite cell viability), NOMO1; type: cell-based; conditions: NOMO1 cell line
Procedure: as §2, §3

[5] = biological target: LRRK2 (Homo sapiens, UniProt Q5S007); assay: LRRK2 IC50; type: biochemical
[6] = tested on: TF-1; assay: Cellular assay (ATPlite cell viability), TF-1; type: cell-based; conditions: TF-1 cell line
Procedure: as §2, §3

[7] = tested on: MOLM-13; assay: Cellular assay (ATPlite cell viability), MOLM-13; type: cell-based; conditions: MOLM-13 cell line
Procedure: as §2, §3

[8] = biological target: T2, BRD4 (Homo sapiens, UniProt O60885); assay: BRD4 IC50 (first BRD4 value listed in Table 2); type: binding; conditions: first BRD4 IC50 listed per compound
Procedure: as §1

[9] = biological target: BRDT (Homo sapiens, UniProt Q58F21); assay: BRDT IC50; type: binding
[10] = tested on: Kasumi-1; assay: Cellular assay (ATPlite cell viability), Kasumi-1; type: cell-based; conditions: Kasumi-1 cell line
Procedure: as §2, §3

[11] = biological target: T2, BRD4; assay: BRD4 IC50 (second BRD4 value listed in Table 2); type: binding; conditions: second BRD4 IC50 listed per compound
[12] = biological target: T2, BRD4; assay: BRD4 KD (DiscoveRx); type: binding
[13] = biological target: T3, CREBBP (Homo sapiens, UniProt Q92793); assay: CREBBP IC50; type: binding
[14] = biological target: T3, CREBBP; assay: CREBBP KD (DiscoveRx); type: binding

LRRK2, sequence (Q5S007 whole entry): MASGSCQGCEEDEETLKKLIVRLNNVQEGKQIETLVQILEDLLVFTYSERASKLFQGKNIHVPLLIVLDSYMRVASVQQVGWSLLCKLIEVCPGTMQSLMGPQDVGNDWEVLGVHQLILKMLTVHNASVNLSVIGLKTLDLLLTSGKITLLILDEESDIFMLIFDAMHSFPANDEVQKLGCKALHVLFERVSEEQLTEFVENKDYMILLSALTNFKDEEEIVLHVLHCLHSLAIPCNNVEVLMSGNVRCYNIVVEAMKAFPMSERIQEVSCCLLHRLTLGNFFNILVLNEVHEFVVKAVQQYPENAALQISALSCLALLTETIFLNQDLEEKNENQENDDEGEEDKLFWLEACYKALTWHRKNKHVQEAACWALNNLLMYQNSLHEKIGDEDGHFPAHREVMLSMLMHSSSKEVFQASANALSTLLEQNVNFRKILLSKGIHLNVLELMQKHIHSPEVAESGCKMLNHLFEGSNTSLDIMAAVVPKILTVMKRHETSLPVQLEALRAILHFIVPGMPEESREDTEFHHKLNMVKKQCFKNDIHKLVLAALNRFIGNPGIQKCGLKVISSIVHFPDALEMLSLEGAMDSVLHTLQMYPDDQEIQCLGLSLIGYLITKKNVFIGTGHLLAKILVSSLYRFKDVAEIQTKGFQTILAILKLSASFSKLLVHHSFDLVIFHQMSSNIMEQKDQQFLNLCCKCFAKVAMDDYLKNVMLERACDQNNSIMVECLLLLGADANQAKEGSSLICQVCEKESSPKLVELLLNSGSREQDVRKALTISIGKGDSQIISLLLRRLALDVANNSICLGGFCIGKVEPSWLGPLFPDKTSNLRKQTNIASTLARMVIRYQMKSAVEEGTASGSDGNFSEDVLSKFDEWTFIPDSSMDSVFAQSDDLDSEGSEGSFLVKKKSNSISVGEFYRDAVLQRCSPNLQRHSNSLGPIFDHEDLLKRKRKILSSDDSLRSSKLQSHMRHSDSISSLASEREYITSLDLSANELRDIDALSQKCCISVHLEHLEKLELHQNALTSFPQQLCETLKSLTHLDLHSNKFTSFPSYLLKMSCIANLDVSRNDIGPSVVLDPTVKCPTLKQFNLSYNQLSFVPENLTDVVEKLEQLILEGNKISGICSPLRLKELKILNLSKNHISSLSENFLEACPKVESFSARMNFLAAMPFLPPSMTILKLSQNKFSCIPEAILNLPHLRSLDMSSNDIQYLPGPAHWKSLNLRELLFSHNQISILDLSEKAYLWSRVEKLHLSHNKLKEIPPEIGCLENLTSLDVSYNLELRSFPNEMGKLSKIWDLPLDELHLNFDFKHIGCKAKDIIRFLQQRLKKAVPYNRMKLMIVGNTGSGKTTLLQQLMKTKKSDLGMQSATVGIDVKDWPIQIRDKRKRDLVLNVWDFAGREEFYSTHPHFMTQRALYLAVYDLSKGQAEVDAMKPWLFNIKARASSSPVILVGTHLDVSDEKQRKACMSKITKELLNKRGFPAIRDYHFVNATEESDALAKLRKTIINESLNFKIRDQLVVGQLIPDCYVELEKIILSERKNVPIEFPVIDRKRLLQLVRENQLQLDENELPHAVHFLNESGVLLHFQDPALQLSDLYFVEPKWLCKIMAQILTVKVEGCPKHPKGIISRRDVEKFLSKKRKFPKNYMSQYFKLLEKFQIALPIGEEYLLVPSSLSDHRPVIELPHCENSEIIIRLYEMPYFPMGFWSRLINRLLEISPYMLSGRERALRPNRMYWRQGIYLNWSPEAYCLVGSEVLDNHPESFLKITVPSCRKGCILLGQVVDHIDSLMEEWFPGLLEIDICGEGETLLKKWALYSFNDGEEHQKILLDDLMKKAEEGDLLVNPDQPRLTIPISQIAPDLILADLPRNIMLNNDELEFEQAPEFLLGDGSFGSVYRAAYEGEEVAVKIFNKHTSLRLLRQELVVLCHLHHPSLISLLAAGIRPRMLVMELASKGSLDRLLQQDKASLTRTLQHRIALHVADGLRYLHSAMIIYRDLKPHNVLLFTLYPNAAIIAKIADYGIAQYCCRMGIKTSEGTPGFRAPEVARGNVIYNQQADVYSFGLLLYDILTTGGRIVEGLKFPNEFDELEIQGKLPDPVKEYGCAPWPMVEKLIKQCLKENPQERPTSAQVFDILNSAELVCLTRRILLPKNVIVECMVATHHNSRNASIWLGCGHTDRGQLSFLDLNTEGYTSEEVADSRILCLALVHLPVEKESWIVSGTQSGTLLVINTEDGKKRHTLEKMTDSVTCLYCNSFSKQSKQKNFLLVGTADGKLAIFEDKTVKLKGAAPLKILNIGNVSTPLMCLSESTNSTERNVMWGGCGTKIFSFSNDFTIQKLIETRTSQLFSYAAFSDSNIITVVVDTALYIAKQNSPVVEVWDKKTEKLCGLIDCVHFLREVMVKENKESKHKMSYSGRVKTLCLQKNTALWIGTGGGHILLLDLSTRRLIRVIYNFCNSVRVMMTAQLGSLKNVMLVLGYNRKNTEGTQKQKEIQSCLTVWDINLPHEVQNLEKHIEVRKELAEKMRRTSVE
T3 sequence (Q92793 whole entry): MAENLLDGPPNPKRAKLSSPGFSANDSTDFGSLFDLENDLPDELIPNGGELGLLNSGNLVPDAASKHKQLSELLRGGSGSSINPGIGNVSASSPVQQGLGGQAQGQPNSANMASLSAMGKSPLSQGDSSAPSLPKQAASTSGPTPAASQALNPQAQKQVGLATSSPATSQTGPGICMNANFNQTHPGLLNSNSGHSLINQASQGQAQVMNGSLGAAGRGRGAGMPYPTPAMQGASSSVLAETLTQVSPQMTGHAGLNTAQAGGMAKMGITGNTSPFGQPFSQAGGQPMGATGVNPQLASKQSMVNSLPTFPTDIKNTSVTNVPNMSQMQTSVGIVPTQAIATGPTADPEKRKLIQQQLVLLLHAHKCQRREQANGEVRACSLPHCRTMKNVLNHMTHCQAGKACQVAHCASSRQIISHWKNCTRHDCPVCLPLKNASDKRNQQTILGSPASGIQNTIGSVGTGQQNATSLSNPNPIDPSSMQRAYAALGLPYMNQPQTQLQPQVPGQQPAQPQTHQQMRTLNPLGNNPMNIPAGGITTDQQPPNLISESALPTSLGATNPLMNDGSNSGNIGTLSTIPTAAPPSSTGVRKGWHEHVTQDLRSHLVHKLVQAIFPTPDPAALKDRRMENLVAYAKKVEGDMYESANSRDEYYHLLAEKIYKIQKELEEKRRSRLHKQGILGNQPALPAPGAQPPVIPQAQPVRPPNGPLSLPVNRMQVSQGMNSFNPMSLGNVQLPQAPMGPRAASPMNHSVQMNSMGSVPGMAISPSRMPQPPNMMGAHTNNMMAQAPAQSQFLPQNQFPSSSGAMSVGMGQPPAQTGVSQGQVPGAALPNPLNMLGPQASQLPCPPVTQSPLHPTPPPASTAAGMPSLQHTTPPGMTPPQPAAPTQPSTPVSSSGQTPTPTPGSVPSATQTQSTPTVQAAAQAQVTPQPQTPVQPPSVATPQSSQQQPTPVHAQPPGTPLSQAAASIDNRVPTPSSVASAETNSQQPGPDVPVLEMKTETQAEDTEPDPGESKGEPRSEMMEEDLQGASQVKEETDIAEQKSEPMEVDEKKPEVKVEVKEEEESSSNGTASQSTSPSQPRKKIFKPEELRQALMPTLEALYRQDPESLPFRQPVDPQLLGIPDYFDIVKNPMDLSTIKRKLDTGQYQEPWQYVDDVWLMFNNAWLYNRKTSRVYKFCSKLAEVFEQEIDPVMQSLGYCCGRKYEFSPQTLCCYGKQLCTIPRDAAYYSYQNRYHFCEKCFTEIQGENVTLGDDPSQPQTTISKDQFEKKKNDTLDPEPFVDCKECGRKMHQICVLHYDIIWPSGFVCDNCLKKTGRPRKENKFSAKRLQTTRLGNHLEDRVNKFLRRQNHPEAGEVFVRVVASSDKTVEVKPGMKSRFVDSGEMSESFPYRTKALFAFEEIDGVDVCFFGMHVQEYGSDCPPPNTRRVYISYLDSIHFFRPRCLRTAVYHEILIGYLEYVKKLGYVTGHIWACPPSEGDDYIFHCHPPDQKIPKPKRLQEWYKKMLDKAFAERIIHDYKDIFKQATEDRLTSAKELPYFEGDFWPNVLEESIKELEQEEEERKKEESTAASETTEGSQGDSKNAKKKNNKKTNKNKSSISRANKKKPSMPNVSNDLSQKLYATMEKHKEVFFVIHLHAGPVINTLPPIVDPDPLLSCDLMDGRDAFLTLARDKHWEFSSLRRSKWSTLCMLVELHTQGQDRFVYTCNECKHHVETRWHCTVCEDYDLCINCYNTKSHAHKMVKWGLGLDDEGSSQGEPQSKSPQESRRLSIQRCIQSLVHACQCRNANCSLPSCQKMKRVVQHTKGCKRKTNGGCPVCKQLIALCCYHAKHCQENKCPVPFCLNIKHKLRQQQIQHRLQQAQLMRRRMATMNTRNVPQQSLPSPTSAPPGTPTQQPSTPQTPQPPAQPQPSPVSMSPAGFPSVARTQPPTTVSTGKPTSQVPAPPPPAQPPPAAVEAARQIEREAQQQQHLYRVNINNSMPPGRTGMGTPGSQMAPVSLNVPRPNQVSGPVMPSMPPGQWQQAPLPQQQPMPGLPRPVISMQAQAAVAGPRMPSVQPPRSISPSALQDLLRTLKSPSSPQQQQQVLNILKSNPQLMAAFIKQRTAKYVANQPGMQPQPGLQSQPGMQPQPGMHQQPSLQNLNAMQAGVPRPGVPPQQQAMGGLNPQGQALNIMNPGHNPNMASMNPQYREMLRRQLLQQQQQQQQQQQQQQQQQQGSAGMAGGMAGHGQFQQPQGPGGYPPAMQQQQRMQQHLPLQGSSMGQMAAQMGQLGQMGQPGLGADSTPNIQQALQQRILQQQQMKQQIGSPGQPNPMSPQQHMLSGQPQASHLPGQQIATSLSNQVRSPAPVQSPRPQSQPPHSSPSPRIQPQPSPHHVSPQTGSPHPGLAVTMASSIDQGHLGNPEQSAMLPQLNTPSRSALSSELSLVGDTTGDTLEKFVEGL

Row | SMILES | inhibition at 2.5 µM [1] [%] | IC50 ([2]; Homo sapiens, MV4-11) [nM] | IC50 [3] [nM] | IC50 ([4]; Homo sapiens, NOMO-1) [nM] | IC50 ([6]; Homo sapiens) [nM] | IC50 ([7]; Homo sapiens) [nM] | IC50 [8] [nM] | IC50 [9] [nM] | IC50 ([10]; Homo sapiens) [nM] | IC50 [11] [nM] | also measured
1 | CCN1CCN(Cc2ccc(Nc3ncc4c(n3)N(C)c3ccccc3C(=O)N4C)cc2C(F)(F)F)CC1 | 45.8 |  |  |  |  |  |  |  |  |  | 
2 | COc1cc(N2CCN(C)CC2)ccc1Nc1ncc2c(n1)N(C)c1ccccc1C(=O)N2C | 36.1 |  |  |  |  |  |  |  |  |  | 
3 | CCOc1cc(N2CCC(O)CC2)ccc1Nc1ncc2c(n1)N(C)c1ccccc1C(=O)N2C | 29.5 |  |  |  |  |  |  |  |  |  | 
4 | CN1C(=O)c2ccccc2N(C)c2nc(Nc3ccc(N4CCC(O)CC4)cc3)ncc21 | 50.8 |  |  |  |  |  |  |  |  |  | 
5 | COc1cc(C(=O)N2CCC(N3CCN(C)CC3)CC2)ccc1Nc1ncc2c(n1)N(C)c1ccccc1C(=O)N2C [Compound 1-226] |  | 549 | 1300 | 2000 | 3360 | 1270 |  |  |  |  | IC50 [5]: 7 nM
6 | COc1cc(C(=O)N2CCC(N3CCN(C)CC3)CC2)ccc1N(C)c1ncc2c(n1)N(C)c1ccccc1C(=O)N2C [Compound 1-284] |  | 2440 | 7420 | 8600 | 6160 | 4630 | 1990 | 5550 | 1860 | 2600 | IC50 [5]: 4000 nM
7 | CCN(c1ncc2c(n1)N(C)c1ccccc1C(=O)N2C)c1ccc(C(=O)N2CCC(N3CCN(C)CC3)CC2)cc1OC [Compound 2-041] |  | 3480 | 7100 | 8300 | 7210 | 5740 | 2.06 | 9610 | 2360 | 5700 | IC50 [5]: 3000 nM
8 | CN1C(=O)c2ccccc2N(C)c2nc(Nc3ccc(C(=O)O)cc3OC3CCCC3)ncc21 [Compound 2-043] |  | > 10000 | 1790 | 6800 | 7100 | 6610 | 732 | 2730 | 4780 | 1510 | 
9 | CN1C(=O)c2ccccc2N(C)c2nc(Nc3ccc(S(N)(=O)=O)cc3)ncc21 [Compound 2-075] |  | 252 | 34 | 2500 | 2140 | 433 |  | 2880 | 96 | 1800 | IC50 ([8]; unit nm [sic]): 970 nM; Kd [12]: 180 nM; IC50 [13]: 431 nM; Kd [14]: 23 nM
10 | C[C@@H](Oc1cc(-n2cnc3ccc(CN4CCN(C)CC4)cc32)sc1C(N)=O)c1ccccc1C(F)(F)F [GSK461364, reference compound] |  | 7.1 | 8 | 5.91 |  | 6.93 | > 50000 |  | 7.8 |  | TF-1 IC50 ([6]; result in words): poor convergence
11 | Cc1sc2c(c1C)C(c1ccc(Cl)cc1)=N[C@@H](CC(=O)OC(C)(C)C)c1nnc(C)n1-2 [JQ1, reference compound] |  |  | 92 |  |  |  |  |  |  |  | IC50 [2]: 65.6 nM; IC50 [4]: 172 nM; IC50 [6]: 109000 nM; IC50 [7]: 89.2 nM; IC50 [10]: 48.8 nM
12 | COc1cc(C(=O)N2CCC(N3CCN(C)CC3)CC2)ccc1Nc1ncc2c(n1)N(C)c1ccccc1C(=O)N2C [drawing 33] | 20.5 |  |  |  |  |  |  |  |  |  | 
